{"source": "patent US20250043353A1", "about": "“BIOMARKERS OF RESPONSE TO SELECTIVE INHIBITORS OF AURORA A KINASE” (Millennium Pharmaceuticals, Inc., priority 2015, published 2025)", "key": {"[1]": {"tested_on": "advanced solid tumor types", "test": "association of somatically mutated genes/pathways (whole exome sequencing) with response to alisertib in trial patients", "assay_type": "in vivo, human", "details": "for est: HR (hazard ratio) for progression free survival (PFS): adjusted by baseline, stratified by indication; for est: mean % best tumor size change between mutant and WT groups: all five tumor types, adjusted by tumor indication and tumor baseline size", "from_the_text": "The best tumor size change and progression-free survival (PFS) of the patients were used as the efficacy response endpoints.\nThe genomic DNA was isolated from 47 patients with 2-4 slides of 5 micron thickness from archived tumor biopsies with Qiagen FFPE kit (Qiagen, Germany). Genomic DNA from blood samples were extracted utilizing blood DNA kit (Qiagen, Germany). Tumor-normal (blood) paired DNAs were sequenced by whole exome DNA sequencing employing Agilent SureSelect exome capture and Illumina Hi-Seq™ technologies.\nThe downstream analysis was designed to identify potential biomarkers predictive of drug response using the high-confidence mutations obtained from the middle-stream analysis. A linear regression model and Cox proportional hazard model were used for best tumor size change and PFS as endpoints, respectively. Tumor type was considered as a covariate in both models to adjust its confounding effect. In case of linear regression for best tumor size change as an endpoint, baseline tumor size was added as an additional covariate since baseline tumor size is […] correlated with the endpoint. In the following linear regression equation, y=β0+β1x+βc1c1+βc2c2+ε, y, x, c1, c2, and c represent the best tumor size change, a single gene mutation status, tumor type, baseline tumor size, and random error, respectively. When the gene harbors high-confidence mutation(s), x becomes 1; otherwise, it is 0. The 1st covariate c1 was converted into five binary variables to represent the five different tumor types and the 2nd covariate c2 is a continuous variable. As a result, the coefficient fi indicates the contribution of the mutated gene to sensitivity or resistance to alisertib treatment after adjusting the potential confounding effects of the covariates. A p-value was computed for testing the null hypothesis β1=0. Since multiple genes were tested using these models and the p-values were corrected for multiple hypothesis testing using false discovery rate (FDR).\nA similar approach was used for the pathway association analysis. A pathway can be defined as a group of genes that are known to be interacting together for a common biological function. […] Two types of statistical tests were selected in order to test the degree of association of mutations on the pathway level and alisertib treatment outcome, particularly best tumor size change. […] A linear regression model was built using this binary variable as an independent variable and tumor type and baseline tumor size were used as covariates, similar to the equation used for gene-level association. Secondly, sequence kernel association tests (SKAT) were run to account for cases where individual mutated genes in a pathway contribute differently to drug sensitivity or resistance. […] As the two methods, linear regression and SKAT, provide different angles in terms of association between pathways and alisertib response, the smaller p-value (the best of the two tests, BOT from here on) was selected as a representative p-value for each pathway. The p-values of the pathways were subjected to multiplicity adjustments in order to control the type I error of the statistical tests.\nThe Cox proportional hazard models were used to see potential association between mutated genes/pathways and progression-free survival (PFS).\nFor single gene-level association, the Benjamini & Hochberg (BH) method was used to compute FDR (also known as q-value). For pathway-level association, as multiple statistical association analyses (linear regression, SKAT and BOT) were conducted for each pathway, and pathways are often correlated through commonly present genes, multiplicity adjustment becomes more complicated. To address these challenges, a re-sampling-based multiplicity adjustment was implemented. The null distributions of p-values from pathway association tests were simulated using parametric bootstrapping. […]"}, "[2]": {"tested_on": "advanced solid tumor types", "details": "patients with relapsed/refractory BC, SCLC, NSCLC, HNSCC, GE adenocarcinoma; activity in all except NSCLC; cited from earlier work"}}}
{"smiles": "COc1cc(Nc2ncc3c(n2)-c2ccc(Cl)cc2C(c2c(F)cccc2OC)=NC3)ccc1C(=O)O", "note": "[alisertib, 4-{[9-chloro-7-(2-fluoro-6-methoxyphenyl)-5H-pyrimido[5,4-d][2]benzazepin-2-yl]amino}-2-methoxybenzoic acid]", "values": [{"measurement": "est: HR (hazard ratio) for progression free survival (PFS)", "setting": "[1]; EP300 mutated vs WT", "value": 0.271}, {"measurement": "est: mean % best tumor size change between mutant and WT groups", "setting": "[1]; FAT1 mutated", "value": "−39.70", "unit": "%"}, {"measurement": "est: mean % best tumor size change between mutant and WT groups", "setting": "[1]; FBXW7 mutated", "value": 41.96, "unit": "%"}, {"measurement": "est: HR (hazard ratio) for progression free survival (PFS)", "setting": "[1]; MLL3 mutated vs WT", "value": 0.129}, {"measurement": "est: mean % best tumor size change between mutant and WT groups", "setting": "[1]; MLL3 mutated", "value": "−28.84", "unit": "%"}, {"measurement": "response (best tumor size change) of patients with mutated pathway versus wild type", "setting": "[1]; patients with mutated WNT or Hippo signaling pathways vs WT", "value": "respond more favorably"}, {"measurement": "single agent antitumor activity", "setting": "[2]", "value": "clinically meaningful antitumor activity in four of the five solid tumor types"}]}
